The results in this text go back to ChEMBL document CHEMBL5465560, “Selectivity Literature for EUbOPEN Chemogenomic Library” (2024).

Each structure is given as a SMILES string.

In assay [1] the target is Serine/threonine-protein kinase mTOR (Homo sapiens, UniProt P42345). Nature of the assay: Selectivity interaction (Kinase panel (KiNativ target engagement assay in Jurkat cells)) EUB0001635a MTOR. Particulars: Selectivity number of off-targets 0.0, Selectivity number of targets 233.0, Source Knowledge https://www.sciencedirect.com/science/article/pii/S2451945619300674?via%3Dihub, at 1 µM. The format is cell-based.

The target in assay [2] is TGF-beta receptor type-2 (Homo sapiens) (UniProt P37173). As to the kind of experiment: Selectivity interaction (KinomeScan (DiscoverX)) EUB0000666a TGFBR2. The conditions noted are these: at 10 µM.
Chain of TGF-beta receptor type-2 (Homo sapiens) (P37173 whole entry, the tested form may be a part): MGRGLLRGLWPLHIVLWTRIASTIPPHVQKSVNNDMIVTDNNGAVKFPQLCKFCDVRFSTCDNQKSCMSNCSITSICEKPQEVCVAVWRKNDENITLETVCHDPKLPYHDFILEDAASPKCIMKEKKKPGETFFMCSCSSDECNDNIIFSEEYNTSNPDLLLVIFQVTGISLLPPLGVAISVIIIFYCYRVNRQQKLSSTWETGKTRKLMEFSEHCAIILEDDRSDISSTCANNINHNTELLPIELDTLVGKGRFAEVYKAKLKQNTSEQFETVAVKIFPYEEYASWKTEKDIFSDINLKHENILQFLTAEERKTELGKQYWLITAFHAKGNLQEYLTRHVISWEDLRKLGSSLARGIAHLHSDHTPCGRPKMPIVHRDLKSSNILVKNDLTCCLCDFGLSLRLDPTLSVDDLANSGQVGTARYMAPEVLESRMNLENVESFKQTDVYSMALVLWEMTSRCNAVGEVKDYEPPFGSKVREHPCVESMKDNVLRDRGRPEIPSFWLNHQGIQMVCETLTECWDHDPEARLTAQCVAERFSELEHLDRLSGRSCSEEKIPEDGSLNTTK
In assay [3] the target is T1, Discoidin domain-containing receptor 2 (Homo sapiens) (UniProt Q16832).
T1 sequence (whole entry): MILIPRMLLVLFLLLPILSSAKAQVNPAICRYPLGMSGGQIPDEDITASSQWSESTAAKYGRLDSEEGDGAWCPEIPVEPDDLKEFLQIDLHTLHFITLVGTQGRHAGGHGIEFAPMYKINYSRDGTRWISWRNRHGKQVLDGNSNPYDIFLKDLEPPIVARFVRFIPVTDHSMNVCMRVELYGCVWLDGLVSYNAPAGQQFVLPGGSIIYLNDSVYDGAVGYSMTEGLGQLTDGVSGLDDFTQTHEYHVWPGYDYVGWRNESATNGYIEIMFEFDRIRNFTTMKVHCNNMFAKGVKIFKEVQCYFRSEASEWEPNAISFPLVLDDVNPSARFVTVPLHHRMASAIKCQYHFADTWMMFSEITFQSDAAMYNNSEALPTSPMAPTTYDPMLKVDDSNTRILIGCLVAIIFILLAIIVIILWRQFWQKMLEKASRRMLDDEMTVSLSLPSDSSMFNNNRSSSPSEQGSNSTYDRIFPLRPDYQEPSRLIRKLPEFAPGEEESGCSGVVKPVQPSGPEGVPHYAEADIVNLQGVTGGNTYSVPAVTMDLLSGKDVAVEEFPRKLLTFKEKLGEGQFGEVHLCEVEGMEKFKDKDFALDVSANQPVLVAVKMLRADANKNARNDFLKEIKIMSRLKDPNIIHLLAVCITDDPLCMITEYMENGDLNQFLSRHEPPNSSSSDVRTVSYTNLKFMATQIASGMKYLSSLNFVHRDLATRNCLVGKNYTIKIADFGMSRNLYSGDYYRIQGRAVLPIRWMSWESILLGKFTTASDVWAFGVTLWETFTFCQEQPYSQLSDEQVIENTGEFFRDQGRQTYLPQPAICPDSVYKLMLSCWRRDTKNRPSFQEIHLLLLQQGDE
Nature of the assay: Selectivity interaction (KinomeScan (DiscoverX)) EUB0000666a DDR2. Particulars: at 10 µM.

Assay [4] has as its system Epidermal growth factor receptor (Homo sapiens), P00533 [UNDEFINED MUTATION]. Nature of the assay: Selectivity interaction (KinomeScan (DiscoverX)) EUB0001619a EGFR. The conditions noted are these: at 1 µM.
For assay [5], the target named is Serine/threonine-protein kinase WNK1 (Homo sapiens) (UniProt Q9H4A3). As to the kind of experiment: Selectivity interaction (ActivX KiNativ screen (kinase selectivity in THP-1 cell lysates)) EUB0000639a WNK1. The conditions noted are these: lysate, at 5 µM. The format is subcellular.
Assay [6] deals with Mitogen-activated protein kinase 3 (Homo sapiens, UniProt P27361). Nature of the assay: Selectivity interaction (ActivX KiNativ screen (kinase selectivity in THP-1 cell lysates)) EUB0000639a MAPK3. The assay is classed as subcellular. Particulars: lysate.
Chain of Mitogen-activated protein kinase 3 (P27361 whole entry): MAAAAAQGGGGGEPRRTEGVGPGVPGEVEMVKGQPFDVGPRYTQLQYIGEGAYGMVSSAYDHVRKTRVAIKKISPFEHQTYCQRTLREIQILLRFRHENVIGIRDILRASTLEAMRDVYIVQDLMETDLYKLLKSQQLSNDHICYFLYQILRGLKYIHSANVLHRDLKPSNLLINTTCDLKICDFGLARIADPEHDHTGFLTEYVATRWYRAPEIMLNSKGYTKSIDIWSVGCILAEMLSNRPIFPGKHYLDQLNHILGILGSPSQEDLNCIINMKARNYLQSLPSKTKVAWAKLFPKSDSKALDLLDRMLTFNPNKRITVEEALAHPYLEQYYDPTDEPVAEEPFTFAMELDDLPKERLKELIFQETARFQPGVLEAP
The target of assay [7] is Calcium/calmodulin-dependent protein kinase type II subunit alpha (Homo sapiens, UniProt Q9UQM7). The conditions noted are these: at 10 µM.
Chain of Calcium/calmodulin-dependent protein kinase type II subunit alpha (Q9UQM7 whole entry): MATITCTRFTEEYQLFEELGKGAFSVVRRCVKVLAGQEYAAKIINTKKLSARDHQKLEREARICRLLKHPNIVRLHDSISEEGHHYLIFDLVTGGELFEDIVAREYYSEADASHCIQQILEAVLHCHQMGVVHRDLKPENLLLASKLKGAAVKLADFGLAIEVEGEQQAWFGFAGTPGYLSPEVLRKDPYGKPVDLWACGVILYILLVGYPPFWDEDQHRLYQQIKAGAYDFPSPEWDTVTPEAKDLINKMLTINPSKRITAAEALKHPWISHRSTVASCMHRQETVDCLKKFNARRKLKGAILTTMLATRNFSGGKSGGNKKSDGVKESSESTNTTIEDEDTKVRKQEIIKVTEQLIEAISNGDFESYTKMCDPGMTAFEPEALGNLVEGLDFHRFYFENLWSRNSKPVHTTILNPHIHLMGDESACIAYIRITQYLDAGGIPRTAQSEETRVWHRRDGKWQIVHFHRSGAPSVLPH
Assay [8] concerns the target Mitotic checkpoint serine/threonine-protein kinase BUB1 beta (Homo sapiens) (UniProt O60566). Nature of the assay: Selectivity interaction (ProQinase) EUB0000171b BUB1B.
Assay [9] addresses T2, Interleukin-1 receptor-associated kinase 3 (Homo sapiens) (UniProt Q9Y616).
T2 sequence (whole entry): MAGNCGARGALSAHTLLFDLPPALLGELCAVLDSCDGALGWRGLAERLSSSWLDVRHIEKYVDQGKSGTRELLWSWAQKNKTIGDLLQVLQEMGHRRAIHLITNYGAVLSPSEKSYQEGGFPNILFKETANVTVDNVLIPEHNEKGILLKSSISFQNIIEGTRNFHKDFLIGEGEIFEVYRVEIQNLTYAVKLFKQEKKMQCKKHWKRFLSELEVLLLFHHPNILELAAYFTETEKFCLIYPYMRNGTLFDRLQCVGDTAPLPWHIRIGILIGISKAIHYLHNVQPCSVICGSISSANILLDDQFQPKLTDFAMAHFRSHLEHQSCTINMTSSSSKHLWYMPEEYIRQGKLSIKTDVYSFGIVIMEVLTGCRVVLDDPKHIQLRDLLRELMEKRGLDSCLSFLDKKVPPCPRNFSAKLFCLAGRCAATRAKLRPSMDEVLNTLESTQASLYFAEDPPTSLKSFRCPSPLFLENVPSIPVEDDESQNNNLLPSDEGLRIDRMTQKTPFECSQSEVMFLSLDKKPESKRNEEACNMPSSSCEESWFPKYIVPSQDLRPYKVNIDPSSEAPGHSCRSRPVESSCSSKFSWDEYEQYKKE
Nature of the assay: Selectivity interaction (KinomeScan (DiscoverX)) EUB0001550a IRAK3. The conditions noted are these: at 1 µM.

The target in assay [10] is Serine/threonine-protein kinase N1 (Homo sapiens, UniProt Q16512). As to the kind of experiment: Selectivity interaction (KinomeScan (DiscoverX)) EUB0000045b PKN1.
Chain of Serine/threonine-protein kinase N1 (Q16512 2-942 limits assumed): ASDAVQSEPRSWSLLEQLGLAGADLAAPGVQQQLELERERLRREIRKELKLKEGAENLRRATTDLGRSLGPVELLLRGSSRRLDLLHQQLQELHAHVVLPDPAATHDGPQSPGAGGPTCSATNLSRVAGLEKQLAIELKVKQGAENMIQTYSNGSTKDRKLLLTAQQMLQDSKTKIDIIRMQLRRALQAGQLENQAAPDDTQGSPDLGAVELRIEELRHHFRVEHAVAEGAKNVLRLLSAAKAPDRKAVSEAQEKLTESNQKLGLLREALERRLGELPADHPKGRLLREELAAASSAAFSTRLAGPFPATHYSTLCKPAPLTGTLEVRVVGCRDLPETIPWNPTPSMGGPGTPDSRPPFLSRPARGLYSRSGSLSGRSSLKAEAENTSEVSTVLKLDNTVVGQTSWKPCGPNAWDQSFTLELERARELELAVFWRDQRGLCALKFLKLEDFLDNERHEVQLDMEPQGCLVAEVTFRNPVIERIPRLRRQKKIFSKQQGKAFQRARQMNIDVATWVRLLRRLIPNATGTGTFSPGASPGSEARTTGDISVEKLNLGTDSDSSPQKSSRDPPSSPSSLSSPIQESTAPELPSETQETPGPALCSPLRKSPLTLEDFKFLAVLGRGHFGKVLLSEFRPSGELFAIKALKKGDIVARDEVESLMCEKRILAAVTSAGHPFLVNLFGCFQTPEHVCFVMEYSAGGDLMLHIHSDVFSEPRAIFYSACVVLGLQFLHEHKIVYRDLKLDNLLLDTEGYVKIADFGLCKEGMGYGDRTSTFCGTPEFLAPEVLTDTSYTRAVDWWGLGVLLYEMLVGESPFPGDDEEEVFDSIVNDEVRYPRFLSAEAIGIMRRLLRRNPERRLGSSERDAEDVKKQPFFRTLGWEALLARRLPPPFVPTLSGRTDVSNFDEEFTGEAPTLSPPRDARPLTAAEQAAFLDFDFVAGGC

Chain of Mitotic checkpoint serine/threonine-protein kinase BUB1 beta (Homo sapiens) (O60566 whole entry): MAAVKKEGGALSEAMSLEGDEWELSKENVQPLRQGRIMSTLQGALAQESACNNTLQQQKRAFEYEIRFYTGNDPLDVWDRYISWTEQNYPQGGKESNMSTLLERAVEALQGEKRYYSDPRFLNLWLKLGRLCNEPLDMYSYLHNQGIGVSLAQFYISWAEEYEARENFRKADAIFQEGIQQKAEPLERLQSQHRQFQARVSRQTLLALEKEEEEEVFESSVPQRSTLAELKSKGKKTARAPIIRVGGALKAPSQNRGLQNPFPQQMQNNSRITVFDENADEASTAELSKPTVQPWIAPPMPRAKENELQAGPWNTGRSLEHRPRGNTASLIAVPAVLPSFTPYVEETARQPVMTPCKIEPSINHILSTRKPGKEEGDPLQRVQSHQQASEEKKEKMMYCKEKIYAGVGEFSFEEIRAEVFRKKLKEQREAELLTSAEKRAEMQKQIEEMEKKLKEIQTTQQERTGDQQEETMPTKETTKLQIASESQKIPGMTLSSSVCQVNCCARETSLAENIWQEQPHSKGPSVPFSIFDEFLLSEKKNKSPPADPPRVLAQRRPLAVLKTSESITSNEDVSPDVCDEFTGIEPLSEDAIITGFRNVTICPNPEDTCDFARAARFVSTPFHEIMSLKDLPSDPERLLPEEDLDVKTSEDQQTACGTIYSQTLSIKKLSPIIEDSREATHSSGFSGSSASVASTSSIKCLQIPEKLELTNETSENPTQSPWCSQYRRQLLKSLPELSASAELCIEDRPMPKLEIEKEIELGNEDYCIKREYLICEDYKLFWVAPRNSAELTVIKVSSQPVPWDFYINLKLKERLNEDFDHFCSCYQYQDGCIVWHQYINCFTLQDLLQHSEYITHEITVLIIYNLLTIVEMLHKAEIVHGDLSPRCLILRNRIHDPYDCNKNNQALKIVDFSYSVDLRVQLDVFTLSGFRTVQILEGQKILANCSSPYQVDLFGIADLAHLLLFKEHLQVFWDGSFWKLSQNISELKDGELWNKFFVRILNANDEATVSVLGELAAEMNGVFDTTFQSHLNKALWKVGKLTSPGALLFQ
Chain of Epidermal growth factor receptor (Homo sapiens), P00533 [UNDEFINED MUTATION] (P00533 whole entry, looked up, change not shown): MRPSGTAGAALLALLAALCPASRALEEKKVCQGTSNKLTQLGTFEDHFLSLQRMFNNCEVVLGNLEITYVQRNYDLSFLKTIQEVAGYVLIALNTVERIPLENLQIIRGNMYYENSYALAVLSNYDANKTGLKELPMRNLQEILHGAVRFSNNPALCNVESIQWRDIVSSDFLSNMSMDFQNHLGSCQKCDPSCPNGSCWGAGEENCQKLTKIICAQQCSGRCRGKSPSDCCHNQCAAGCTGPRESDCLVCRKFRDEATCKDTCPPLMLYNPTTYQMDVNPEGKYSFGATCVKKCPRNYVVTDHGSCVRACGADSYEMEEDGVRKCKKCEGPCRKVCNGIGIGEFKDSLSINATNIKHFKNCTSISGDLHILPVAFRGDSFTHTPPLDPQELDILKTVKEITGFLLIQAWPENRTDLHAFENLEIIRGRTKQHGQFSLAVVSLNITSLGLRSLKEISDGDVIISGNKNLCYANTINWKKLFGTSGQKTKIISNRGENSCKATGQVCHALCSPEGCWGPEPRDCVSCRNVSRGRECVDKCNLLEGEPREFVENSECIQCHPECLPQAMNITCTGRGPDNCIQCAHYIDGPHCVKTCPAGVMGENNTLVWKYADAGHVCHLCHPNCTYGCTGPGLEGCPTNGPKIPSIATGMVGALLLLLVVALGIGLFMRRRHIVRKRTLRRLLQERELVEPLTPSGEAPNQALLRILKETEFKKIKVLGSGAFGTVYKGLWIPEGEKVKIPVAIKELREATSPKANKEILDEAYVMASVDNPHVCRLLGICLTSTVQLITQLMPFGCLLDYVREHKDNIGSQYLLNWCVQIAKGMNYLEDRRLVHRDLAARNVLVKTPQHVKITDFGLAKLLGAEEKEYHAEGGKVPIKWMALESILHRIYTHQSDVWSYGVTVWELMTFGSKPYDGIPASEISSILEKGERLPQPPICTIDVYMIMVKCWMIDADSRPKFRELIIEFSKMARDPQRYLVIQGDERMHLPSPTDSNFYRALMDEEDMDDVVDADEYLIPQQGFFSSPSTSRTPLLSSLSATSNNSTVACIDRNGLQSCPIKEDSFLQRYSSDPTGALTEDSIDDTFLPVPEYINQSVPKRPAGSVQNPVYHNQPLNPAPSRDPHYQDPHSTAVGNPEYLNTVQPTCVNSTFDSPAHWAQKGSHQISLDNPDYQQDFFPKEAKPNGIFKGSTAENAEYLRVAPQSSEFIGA

As for `C=CC(=O)Nc1ccc(C(=O)Nc2[nH]nc3c2CN(C(=O)N[C@H](CN(C)C)c2ccccc2)C3(C)C)cc1`, in [1], the % of engagement is -11.9%.

For `O=C(NOC[C@H](O)CO)c1ccc(F)c(F)c1Nc1ccc(I)cc1F`, the % of control in [2] and in [3] was 100% in each case.

Consider `N#Cc1cccc(-c2c[nH]c3ncnc(N4CCOCC4)c23)c1`, for which the % of control in [4] stood at 79%.

`CC[C@@H]1[C@H](F)C(=O)N[C@@H]1COc1nccc2cc(C(N)=O)c(OC)cc12` [ZIMLOVISERTIB]: the % of inhibition is -14.5% in assay [5]; 0.3% in assay [6] (at 0.01 µM); 0.4% in [6] (at 0.04 µM); 5% in [6] (at 0.2 µM); 5.6% in [6] (at 1 µM); -4.9% in assay [6] (at 5 µM).

On to `CCN(CC)CCCCNc1ncc2cc(-c3cc(OC)cc(OC)c3)c(NC(=O)NC(C)(C)C)nc2n1`, for which the % of control in assay [7] is 100%.

On to `C=CC(=O)Nc1cccc(C(=O)Nc2ccc(Nc3cc(-c4[nH]c(SC)nc4C)ccn3)cc2)c1`, for which the % of control turned out to be 95% in assay [8] (at 1 µM) and 80% in assay [8] (at 5 µM).

In the case of `CN(C)CC#Cc1ccc2[nH]c3c(c2c1)-c1nc(N)ncc1CCC3`, the % of control in [9] stood at 9.2%.

Regarding `C=CC(=O)Nc1cc(-n2c(=O)ccc3cnc4ccc(-c5ccc(NS(C)(=O)=O)cc5)cc4c32)ccc1C`, the values for the % of control in assay [10] (at 1 µM) and in [10] (at 10 µM) were 100% and 99%, respectively.
